Measured values published in US20230312577A1, “DUAL KINASE-BROMODOMAIN INHIBITORS” (MONASH UNIVERSITY, priority 2020, published 2023).

What follows are molecules tested on OPM2 cells (assay: Cell proliferation assay (ViaLight, cellular ATP)). Details: Homo sapiens, OPM-2, 120 h, 5 days, 5 μM to 1 nM.
Assay type: cell-based
Description: OPM2 cells (1×10^3) were plated in a 96 well plate. Test compounds were added to cells at final concentrations ranging from 5 μM to 1 nM. They were incubated for 5 days before they were analysed using ViaLight luminescence-based proliferation assays which detect cellular ATP, as per the manufacturer's instructions. All samples were prepared in technical triplicates. Data analysis was performed in GraphPad Prism version 7.00 for Mac OS X, (GraphPad Software, San Diego California USA) in order to calculate the GI50.

Structure (SMILES) | GI50 [nM]
CC(=O)N1c2ccc(-c3ccc(CNC(=O)c4cc5c(N6CCOCC6)nc(-c6cnc(N)nc6)c(Cl)n5n4)cc3)cc2CC[C@@H]1C [Cpd 068, (S)-N-(4-(1-Acetyl-2-methyl-1,2,3,4-tetrahydroquinolin-6-yl)benzyl)-6-(2-aminopyrimidin-5-yl)-7-chloro-4-morpholinopyrazolo[1,5-a]pyrazine-2-carboxamide] | ≤ 100
CC(=O)N1c2ccc(-c3ccc(CCNC(=O)c4cc5nc(-c6cnc(N)nc6)nc(N6CCOCC6)c5s4)cc3)cc2CC[C@@H]1C [Cpd 045, (S)-N-(4-(1-acetyl-2-methyl-1,2,3,4-tetrahydroquinolin-6-yl)phenethyl)-2-(2-aminopyrimidin-5-yl)-4-morpholinothieno[3,2-d]pyrimidine-6-carboxamide] | ≤ 100
CC(=O)N1c2ccc(-c3cccc(CCNC(=O)c4sc5c(N6CCOCC6)nc(-c6cnc(N)nc6)nc5c4C)c3)cc2CC[C@@H]1C [Cpd 051, (S)-N-(3-(1-acetyl-2-methyl-1,2,3,4-tetrahydroquinolin-6-yl)phenethyl)-2-(2-aminopyrimidin-5-yl)-7-methyl-4-morpholinothieno[3,2-d]pyrimidine-6-carboxamide] | 100 to 500
CC(=O)N1c2ccc(-c3ccc(CN(C)C(=O)c4sc5c(N6CCOCC6)nc(-c6cnc(N)nc6)nc5c4C)cc3)cc2CC[C@@H]1C [Cpd 039, (S)-N-(4-(1-acetyl-2-methyl-1,2,3,4-tetrahydroquinolin-6-yl)benzyl)-2-(2-aminopyrimidin-5-yl)-N,7-dimethyl-4-morpholinothieno[3,2-d]pyrimidine-6-carboxamide] | > 500
CC(=O)N1c2ccc(-c3ccc(CNC(=O)c4nc5c(N6CCOCC6)nc(-c6cnc(N)nc6)cn5n4)cc3)cc2CC[C@@H]1C [Cpd 072, (S)-N-(4-(1-Acetyl-2-methyl-1,2,3,4-tetrahydroquinolin-6-yl)benzyl)-6-(2-aminopyrimidin-5-yl)-8-morpholino-[1,2,4]triazolo[1,5-a]pyrazine-2-carboxamide] | ≤ 100
CC(=O)N1c2ccc(-c3cnn(C4CCN(Cc5sc6c(N7CCOCC7)nc(-c7cnc(N)nc7)nc6c5C)CC4)c3)cc2CC[C@@H]1C [Cpd 052, (S)-1-(6-(1-(1-((2-(2-aminopyrimidin-5-yl)-7-methyl-4-morpholinothieno[3,2-d]pyrimidin-6-yl)methyl)piperidin-4-yl)-1H-pyrazol-4-yl)-2-methyl-3,4-dihydroquinolin-1(2H)-yl)ethan-1-one] | > 500
CC(=O)N1c2ccc(-c3ccc(CNC(=O)c4cn5cc(-n6c(C(F)F)nc7ccccc76)nc(N6CCOCC6)c5n4)cc3)cc2CC[C@@H]1C [Cpd 060, (S)-N-(4-(1-Acetyl-2-methyl-1,2,3,4-tetrahydroquinolin-6-yl)benzyl)-6-(2-(difluoromethyl)-1H-benzo[d]imidazol-1-yl)-8-morpholinoimidazo[1,2-a]pyrazine-2-carboxamide] | ≤ 100
CC(=O)N1c2ccc(-c3ccc(CNC(=O)c4cn5cc(-c6cnc(N)cc6C(F)(F)F)nc(N6CCOCC6)c5n4)cc3)cc2CC[C@@H]1C [Cpd 057, (S)-N-(4-(1-Acetyl-2-methyl-1,2,3,4-tetrahydroquinolin-6-yl)benzyl)-6-(6-amino-4-(tri-fluoromethyl)pyridin-3-yl)-8-morpholinoimidazo[1,2-a]pyrazine-2-carboxamide] | > 500
CC(=O)N1c2ccc(-c3ccc(CNC(=O)c4nc5c(N6CCOCC6)cc(-c6cnc(N)nc6)cn5n4)cc3)cc2CC[C@@H]1C [Cpd 073, (S)-N-(4-(1-Acetyl-2-methyl-1,2,3,4-tetrahydroquinolin-6-yl)benzyl)-6-(2-aminopyrimidin-5-yl)-8-morpholino-[1,2,4]triazolo[1,5-a]pyridine-2-carboxamide] | ≤ 100
CC(=O)N1c2ccc(-c3ccc(CNC(=O)c4cn5cc(-c6cccc7[nH]ncc67)nc(N6CCOCC6)c5n4)cc3)cc2CC[C@@H]1C [Cpd 059, (S)-N-(4-(1-Acetyl-2-methyl-1,2,3,4-tetrahydroquinolin-6-yl)benzyl)-6-(1H-indazol-4-yl)-8-morpholinoimidazo[1,2-a]pyrazine-2-carboxamide] | ≤ 100
CC(=O)N1c2ccc(-c3ccc(CNC(=O)c4cn5cc(-c6cnc(N)nc6)cc(N6CCOCC6)c5n4)cc3)cc2CC[C@@H]1C [Cpd 074, (S)-N-(4-(1-Acetyl-2-methyl-1,2,3,4-tetrahydroquinolin-6-yl)benzyl)-6-(2-aminopyrimidin-5-yl)-8-morpholinoimidazo[1,2-a]pyridine-2-carboxamide] | ≤ 100
CC(=O)N1c2ccc(-c3ccc([C@H](C)NC(=O)c4cn5cc(-c6cnc(N)nc6)nc(N6CCOCC6)c5n4)cc3)cc2CC[C@@H]1C [Cpd 062, N-((S)-1-(4-((S)-1-Acetyl-2-methyl-1,2,3,4-tetrahydroquinolin-6-yl)phenyl)ethyl)-6-(2-aminopyrimidin-5-yl)-8-morpholinoimidazo[1,2-a]pyrazine-2-carboxamide] | ≤ 100
CC(=O)N1c2ccc(-c3ccc(NC(=O)CNC(=O)c4sc5c(N6CCOCC6)nc(-c6cnc(N)nc6)nc5c4C)cc3)cc2CC[C@@H]1C [Cpd 047, (S)-N-(2-((4-(1-acetyl-2-methyl-1,2,3,4-tetrahydroquinolin-6-yl)phenyl)amino)-2-oxoethyl)-2-(2-aminopyrimidin-5-yl)-7-methyl-4-morpholinothieno[3,2-d]pyrimidine-6-carboxamide] | > 500
CC(=O)N1c2ccc(-c3cccc(CC(=O)NCc4cn5cc(-c6cnc(N)nc6)nc(N6CCOCC6)c5n4)c3)cc2CC[C@@H]1C [Cpd 019, (S)-2-(3-(1-Acetyl-2-methyl-1,2,3,4-tetrahydroquinolin-6-yl)phenyl)-N-((6-(2-aminopy-rimidin-5-yl)-8-morpholinoimidazo[1,2-a]pyrazin-2-yl)methyl)acetamide] | 100 to 500
CC(=O)N(Cc1ccc(-c2ccc3c(c2)CC[C@H](C)N3C(C)=O)cc1)Cc1sc2c(N3CCOCC3)nc(-c3cnc(N)nc3)nc2c1C [Cpd 056, (S)-N-(4-(1-Acetyl-2-methyl-1,2,3,4-tetrahydroquinolin-6-yl)benzyl)-N-((2-(2-aminopy-rimidin-5-yl)-7-methyl-4-morpholinothieno[3,2-d]pyrimidin-6-yl)methyl)acetamide] | 100 to 500
CC(=O)N1c2ccc(-c3cccc(CNC(=O)c4cn5cc(-c6cnc(N)nc6)nc(N6CCOCC6)c5n4)c3)cc2CC[C@@H]1C [Cpd 011, (S)-N-(3-(1-acetyl-2-methyl-1,2,3,4-tetrahydroquinolin-6-yl)benzyl)-6-(2-aminopyrimidin-5-yl)-8-morpholinoimidazo[1,2-a]pyrazine-2-carboxamide] | 100 to 500
CC(=O)N1c2ccc(-c3cccc(CNC(=O)Cc4cn5cc(-c6cnc(N)nc6)nc(N6CCOCC6)c5n4)c3)cc2CC[C@@H]1C [Cpd 025, (S)-N-(3-(1-acetyl-2-methyl-1,2,3,4-tetrahydroquinolin-6-yl)benzyl)-2-(6-(2-aminopyrimidin-5-yl)-8-morpholinoimidazo[1,2-a]pyrazin-2-yl)acetamide] | 100 to 500
CC(=O)N1c2ccc(-c3ccc(NC(=O)CNC(=O)c4nc5c(N6CCOCC6)nc(-c6cnc(N)nc6)cn5c4C)cc3)cc2CC[C@@H]1C [Cpd 048, (S)-N-(2-((4-(1-acetyl-2-methyl-1,2,3,4-tetrahydroquinolin-6-yl)phenyl)amino)-2-oxoethyl)-6-(2-aminopyrimidin-5-yl)-3-methyl-8-morpholinoimidazo[1,2-a]pyrazine-2-carboxamide] | ≤ 100
CC(=O)N1c2ccc(-c3cccc(NC(=O)Cc4cn5cc(-c6cnc(N)nc6)nc(N6CCOCC6)c5n4)c3)cc2CC[C@@H]1C [Cpd 023, (S)-N-(3-(1-acetyl-2-methyl-1,2,3,4-tetrahydroquinolin-6-yl)phenyl)-2-(6-(2-aminopyrimidin-5-yl)-8-morpholinoimidazo[1,2-a]pyrazin-2-yl)acetamide] | 100 to 500
CC(=O)N1c2ccc(-c3ccc(CNCc4sc5c(N6CCOCC6)nc(-c6cnc(N)nc6)nc5c4C)cc3)cc2CC[C@@H]1C [Cpd 055, (S)-1-(6-(4-((((2-(2-aminopyrimidin-5-yl)-7-methyl-4-morpholinothieno[3,2-d]pyrimidin-6-yl)methyl)amino)methyl)phenyl)-2-methyl-3,4-dihydroquinolin-1(2H)-yl)ethan-1-one] | > 500
CC(=O)N1c2ccc(-c3ccc(CCNC(=O)c4sc5c(N6CCOCC6)nc(-c6cnc(N)nc6)nc5c4C)cc3)cc2CC[C@@H]1C [Cpd 046, (S)-N-(4-(1-acetyl-2-methyl-1,2,3,4-tetrahydroquinolin-6-yl)phenethyl)-2-(2-aminopyrimidin-5-yl)-7-methyl-4-morpholinothieno[3,2-d]pyrimidine-6-carboxamide] | 100 to 500
CC(=O)N1c2ccc(-c3ccc(C(=O)N(C)CCN(C)C(=O)c4cn5cc(-c6cnc(N)nc6)nc(N6CCOCC6)c5n4)cc3)cc2CC[C@@H]1C [Cpd 036, (S)-N-(2-(4-(1-Acetyl-2-methyl-1,2,3,4-tetrahydroquinolin-6-yl)-N-methylbenzamido)ethyl)-6-(2-aminopyrimidin-5-yl)-N-methyl-8-morpholinoimidazo[1,2-a]pyrazine-2-carboxamide] | > 500
CC(=O)N1c2ccc(-c3ccc(C(=O)NCCCNC(=O)c4sc5c(N6CCOCC6)nc(-c6cnc(N)nc6)nc5c4C)cc3)cc2CC[C@@H]1C [Cpd 041, (S)-N-(3-(4-(1-Acetyl-2-methyl-1,2,3,4-tetrahydroquinolin-6-yl)benzamido)propyl)-2-(2-aminopyrimidin-5-yl)-7-methyl-4-morpholinothieno[3,2-d]pyrimidine-6-carboxamide] | > 500
CC(=O)N1c2ccc(-c3cccc(CCNC(=O)c4nc5c(N6CCOCC6)nc(-c6cnc(N)nc6)cn5c4C)c3)cc2CC[C@@H]1C [Cpd 050, (S)-N-(3-(1-acetyl-2-methyl-1,2,3,4-tetrahydroquinolin-6-yl)phenethyl)-6-(2-aminopyrimidin-5-yl)-3-methyl-8-morpholinoimidazo[1,2-a]pyrazine-2-carboxamide] | 100 to 500
